Test results published in PubChem BioAssay (NCI).
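Five compound concentrations were applied to cells in 96-well plates for 48 hours; endpoints were derived by simple linear interpolation of the resulting dose-response curve. Abbreviation: GI50, concentration required for 50% inhibition of growth. Definition used: TGI = concentration required for complete inhibition of growth.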

Columns and labels:
Assay in all cases: NCI tumour cell line growth inhibition, 48 h
U251 CNS = tested on: U251 CNS
ACHN renal = tested on: ACHN renal
HOP-92 NSCLC = tested on: HOP-92 NSCLC
SK-MEL-5 melanoma = tested on: SK-MEL-5 melanoma
SK-OV-3 ovarian = tested on: SK-OV-3 ovarian
UACC-62 melanoma = tested on: UACC-62 melanoma
RXF 393 renal = tested on: RXF 393 renal
UACC-257 melanoma = tested on: UACC-257 melanoma
RPMI-8226 leukemia = tested on: RPMI-8226 leukemia
SK-MEL-2 melanoma = tested on: SK-MEL-2 melanoma

| SMILES | GI50 (U251 CNS) | TGI (U251 CNS) | GI50 (ACHN renal) | TGI (ACHN renal) | GI50 (HOP-92 NSCLC) | TGI (HOP-92 NSCLC) | GI50 (SK-MEL-5 melanoma) | TGI (SK-MEL-5 melanoma) | GI50 (SK-OV-3 ovarian) | TGI (SK-OV-3 ovarian) | GI50 (UACC-62 melanoma) | TGI (UACC-62 melanoma) | GI50 (RXF 393 renal) | TGI (RXF 393 renal) | GI50 (UACC-257 melanoma) | TGI (UACC-257 melanoma) | GI50 (RPMI-8226 leukemia) | TGI (RPMI-8226 leukemia) | TGI (SK-MEL-2 melanoma) | GI50 (SK-MEL-2 melanoma) |
| --- | --- | --- | --- | --- | --- | --- | --- | --- | --- | --- | --- | --- | --- | --- | --- | --- | --- | --- | --- | --- |
| COc1ccc(/C=C/c2cc(OC)c(OC)c(OC)c2)cc1NC(=O)/C=C/c1ccc(F)cc1 | 3.17 µM | > 100 µM | 6.3 µM | > 100 µM | 4.36 µM | > 100 µM | 2.72 µM | > 100 µM | 0.0441 µM | 0.782 µM | 3.32 µM | > 100 µM | 1.41 µM | 4.88 µM | 3.02 µM | > 100 µM | 2.1 µM | > 100 µM | – | – |
| Cc1nn(C(=O)c2ccccc2O)c2c1C(c1ccccc1)SC(N)=N2 (configuration not stated) | – | > 10 µM | – | > 10 µM | – | – | – | > 10 µM | – | > 10 µM | – | 9.73 µM | – | > 10 µM | – | > 10 µM | – | 6.05 µM | > 10 µM | – |
| Nc1ccc(C(=O)N/C(=C\C=C\c2ccco2)c2nc3[nH]c(=S)[nH]c(=O)c3[nH]2)cc1 | – | > 100 µM | – | > 100 µM | – | > 100 µM | – | > 100 µM | – | > 100 µM | – | – | – | > 100 µM | – | – | – | – | > 100 µM | – |
| COc1cc(-c2cc(=O)c3cc4c(cc3[nH]2)OCO4)cc(OC)c1OC | – | > 100 µM | – | > 100 µM | – | 69 µM | – | > 100 µM | – | > 100 µM | – | > 100 µM | 22.1 µM | 60.5 µM | – | – | – | > 100 µM | > 100 µM | – |
| COc1cc(/C=C/c2cc(C(F)(F)F)[nH]c(=O)n2)ccc1OCc1ccccc1F | 5.23 µM | 18.5 µM | 12.7 µM | 38.7 µM | – | – | 6.97 µM | 20.2 µM | 16.3 µM | 50.8 µM | 7.57 µM | 21.6 µM | 2.4 µM | 8.78 µM | 7.51 µM | 31.3 µM | 3.85 µM | 27.1 µM | 28.2 µM | 12.1 µM |
| COC1=CC23C=CC1[C@@H](c1ccccc1)C2=C(C)C(=O)N3C(=O)NC1CCCCC1 (some centres not stated) | – | 35.4 µM | – | > 100 µM | – | 47.5 µM | – | 29.2 µM | – | 93.5 µM | – | 47.6 µM | – | 14.8 µM | – | 77.4 µM | – | – | 39.5 µM | – |
| c1cnc2c(c1)-n1cccc1C1(CCSCC1)NN2 | – | – | – | > 100 µM | – | – | – | > 100 µM | – | – | – | – | – | – | – | > 100 µM | – | > 100 µM | > 100 µM | – |
| Cc1cc2c(CC(=O)O)[nH]nc2c(C(=O)O)c1C | – | > 100 µM | – | > 100 µM | – | > 100 µM | – | – | – | > 100 µM | – | > 100 µM | – | > 100 µM | – | > 100 µM | – | > 100 µM | > 100 µM | – |
| Cc1cc2nc3c(=O)n(C)c(=O)nc-3n(-c3ccc(Cl)cc3)c2cc1C | – | 29.9 µM | – | 24.7 µM | – | 34 µM | – | 4.14 µM | – | 67.4 µM | – | 10.6 µM | – | – | – | 20 µM | – | 26.4 µM | 34.9 µM | – |
| O=C(Oc1ccc(O)c2c(=O)n3c(cc12)[nH]c1ccccc13)c1ccccc1 | 10.1 µM | 27.4 µM | 7.55 µM | 23.6 µM | 23.8 µM | 53.4 µM | 15.5 µM | 36.9 µM | – | – | 13.7 µM | 27.5 µM | – | 0.505 µM | 16.6 µM | 42.2 µM | 11.8 µM | 51.4 µM | > 100 µM | 21 µM |
| Cc1cc2nc3c(C(OC4OC(CO)C(O)C(O)C4O)C(O)CO)nn(-c4ccccc4)c3nc2cc1C (configuration not stated) | – | > 100 µM | – | > 100 µM | – | – | – | – | – | > 100 µM | – | > 100 µM | – | > 100 µM | – | > 100 µM | – | > 100 µM | – | – |
| CCN(CC)CCCCC1CCN(CC(=O)N2CC(C)C(=O)Nc3ccccc32)CC1 (configuration not stated) | – | > 100 µM | – | > 100 µM | – | > 100 µM | – | > 100 µM | – | > 100 µM | – | > 100 µM | – | – | – | > 100 µM | – | > 100 µM | – | – |
| CC1=C2C(O)C(C(C)CO)C(O)CC2(C)C(O)CC1 (configuration not stated) | – | > 100 µM | – | > 100 µM | – | > 100 µM | – | > 100 µM | – | > 100 µM | – | > 100 µM | – | > 100 µM | – | > 100 µM | – | > 100 µM | – | – |
| O=C(Nc1ccc(Cl)cc1)Nc1ccc(Cl)c(Cl)c1 | 3.52 µM | > 100 µM | 3.71 µM | > 100 µM | 1.62 µM | 5.46 µM | 1.72 µM | 3.42 µM | – | – | 5.59 µM | > 100 µM | – | – | 3.76 µM | > 100 µM | 1.61 µM | 4.73 µM | 32.8 µM | 3.07 µM |
| S=C(Nc1ccc(-c2nc3ccccc3[nH]2)cc1)NC1CCCCC1 | 19.7 µM | 45.2 µM | 18.1 µM | 42.2 µM | 35.3 µM | – | – | – | – | – | 15.3 µM | – | 15.5 µM | 74 µM | 26.6 µM | 57.1 µM | 16.6 µM | 90.2 µM | – | 36.5 µM |
| Cc1nc2ccc(C(F)(F)F)cc2nc1Nc1ccc(Cl)c(Cl)c1 | – | 19.4 µM | – | 23.4 µM | – | 12.1 µM | – | – | – | 36 µM | – | 29.1 µM | – | 19.1 µM | – | 25.4 µM | – | 88.1 µM | 30.2 µM | – |
| CCN(CC)CCn1c2c3ccccc3ccc2c2oc(=O)c3ccccc3c21 | – | > 100 µM | – | > 100 µM | – | > 100 µM | – | – | – | > 100 µM | – | > 100 µM | – | – | – | > 100 µM | – | > 100 µM | > 100 µM | – |
| O=[N+]([O-])c1c(/C=N/Nc2ccccc2)oc(-c2ccc3c(c2)OCO3)c1-c1ccc2c(c1)OCO2 | – | – | – | > 100 µM | – | > 100 µM | – | – | – | > 100 µM | – | > 100 µM | – | > 100 µM | – | > 100 µM | – | 24.2 µM | 24.2 µM | – |
| COc1cc(-c2nc3ccc(C)cc3[nH]2)ccc1OCC(=O)N=Nc1c(O)[nH]c2ccccc12 | – | – | 3.39 µM | 13.6 µM | 1.56 µM | 3.28 µM | 1.82 µM | 3.52 µM | – | – | 1.76 µM | 3.31 µM | 1.65 µM | 3.17 µM | – | – | – | – | – | – |
| CCCCC#COP(=O)(OCC)OCC | – | > 100 µM | – | > 100 µM | – | – | – | > 100 µM | – | > 100 µM | – | > 100 µM | – | – | – | > 100 µM | – | > 100 µM | > 100 µM | – |
